Positions of bridges follow the written chain, without caps; N, C: chain ends. Non-standard residues stand in square brackets, D forms with d. Residues, ends and D or L forms follow the SMILES beside them. ξ: configuration not given here. Phe(4-guanidino) = N=C(N)Nc1ccc(C[C@H](N)C(=O)O)cc1; Phe(3,4-Cl2) = N[C@@H](Cc1ccc(Cl)c(Cl)c1)C(=O)O; Phe(2,4-Cl2) = N[C@@H](Cc1ccc(Cl)cc1Cl)C(=O)O; Phe(3-CN) = N#Cc1cccc(C[C@H](N)C(=O)O)c1; Phe(4-NH2) = Nc1ccc(C[C@H](N)C(=O)O)cc1; d(cisHyp) = O=C(O)[C@H]1C[C@@H](O)CN1; Bta = N[C@@H](Cc1csc2ccccc12)C(=O)O; Hyp = O=C(O)[C@@H]1C[C@@H](O)CN1; NMehSer = CN[C@@H](CCO)C(=O)O; NMeNle = CCCC[C@H](NC)C(=O)O; NMeA = CN[C@@H](C)C(=O)O; Nle = CCCC[C@H](N)C(=O)O; Dap = NC[C@H](N)C(=O)O; ξC = NC(CS)C(=O)O
Legend:
[1] = target: T1, LK35.2-hPD-L1 cells / PE-labeled PD-1-Ig (Homo sapiens, UniProt Q9NZQ7); assay: LK35.2-hPD-L1 cell binding high-content screening assay; type: cell-based; settings: cell binding assay, cell line not given; cluster symbol; read-out: CBA IC50 cluster
T1 construct: expressed in transfected cells; host or cells: LK35.2 mouse B cell line
T1 sequence (Q9NZQ7 19-290): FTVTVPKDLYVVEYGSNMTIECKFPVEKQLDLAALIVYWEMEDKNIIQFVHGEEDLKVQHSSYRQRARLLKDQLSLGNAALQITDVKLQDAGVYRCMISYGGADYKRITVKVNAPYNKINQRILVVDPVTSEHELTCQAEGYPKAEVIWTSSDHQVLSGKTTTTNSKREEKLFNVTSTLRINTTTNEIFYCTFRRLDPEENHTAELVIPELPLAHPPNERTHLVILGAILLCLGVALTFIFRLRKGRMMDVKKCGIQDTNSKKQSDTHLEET
In short: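 Binding of PE-conjugated human PD-1-Ig (1 nM final) to human PD-L1 stably expressed on a mouse B-cell line (LK35.2) was measured by high-content imaging after washes. Compound and labeled PD-1-Ig were co-incubated 1 h at 37 °C with cells in RPMI/10% FCS.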

Human PD-L1/PD-1 = target: T2, Human PD-L1/PD-1 (Homo sapiens, UniProt Q9NZQ7); assay: HTRF PD-1-Ig/PD-L1-His binding assay (human PD-L1); settings: cluster symbol; read-out: HTRF IC50 cluster
T2 construct: made in house; host or cells: HEK293T
T2 sequence (Q9NZQ7 with tags, fused parts or gaps): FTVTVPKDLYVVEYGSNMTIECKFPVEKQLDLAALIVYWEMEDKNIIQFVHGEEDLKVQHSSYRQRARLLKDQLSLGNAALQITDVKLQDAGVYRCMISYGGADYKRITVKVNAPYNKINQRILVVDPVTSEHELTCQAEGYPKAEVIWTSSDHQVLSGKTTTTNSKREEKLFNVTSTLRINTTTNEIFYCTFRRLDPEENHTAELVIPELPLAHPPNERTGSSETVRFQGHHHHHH
In short: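 Ig- and His-fused extracellular PD-1/PD-L1 binding in BSA/Tween-20 dPBS. HTRF with Eu anti-Ig (1 nM final) and APC anti-His (20 nM final).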

Structure (SMILES) | IC50 [1] | IC50 (Human PD-L1/PD-1)
CCCC[C@H]1C(=O)N(C)[C@@H](CCCC)C(=O)N[C@@H](CCCNC(=N)N)C(=O)N[C@H](C(=O)NCC(N)=O)CSCC(=O)N[C@@H](Cc2cccc(C#N)c2)C(=O)N(C)[C@@H](C)C(=O)N[C@@H](CC(N)=O)C(=O)N2CCC[C@H]2C(=O)N[C@@H](Cc2cnc[nH]2)C(=O)N[C@@H](CC(C)C)C(=O)N2C[C@H](O)C[C@H]2C(=O)N[C@@H](Cc2c[nH]c3ccccc23)C(=O)N[C@@H](CO)C(=O)N[C@@H](Cc2c[nH]c3ccccc23)C(=O)N1C [Example 7058] ({CH2CO}-[Phe(3-CN)][NMeA]NPHL[Hyp]WSW[NMeNle][NMeNle]RCG-NH2; thioether N-14) | > 74.3 nM | 6.76 to 30.3 nM
CCCC[C@H]1C(=O)N(C)[C@@H](CCCC)C(=O)N[C@@H](CCCNC(=N)N)C(=O)N[C@H](C(=O)NCC(N)=O)CSCC(=O)N[C@@H](Cc2ccc(OC)cc2)C(=O)N(C)[C@@H](C)C(=O)N[C@@H](CC(N)=O)C(=O)N2CCC[C@H]2C(=O)N[C@@H](Cc2cnc[nH]2)C(=O)N[C@@H](CC(C)C)C(=O)N2C[C@H](O)C[C@H]2C(=O)N[C@@H](Cc2c[nH]c3ccccc23)C(=O)N[C@@H](CO)C(=O)N[C@@H](Cc2c[nH]c3ccccc23)C(=O)N1C [Example 7060] | 0.158 to 4.71 nM | 0.385 to 6.74 nM
CCCC[C@H]1C(=O)N(C)[C@@H](CCCC)C(=O)N[C@@H](CCCNC(=N)N)C(=O)N[C@H](C(=O)NCC(N)=O)CSCC(=O)N[C@@H](Cc2ccc(Cl)cc2Cl)C(=O)N(C)[C@@H](C)C(=O)N[C@@H](CC(N)=O)C(=O)N2CCC[C@H]2C(=O)N[C@@H](Cc2cnc[nH]2)C(=O)N[C@@H](CC(C)C)C(=O)N2C[C@H](O)C[C@H]2C(=O)N[C@@H](Cc2c[nH]c3ccccc23)C(=O)N[C@@H](CO)C(=O)N[C@@H](Cc2c[nH]c3ccccc23)C(=O)N1C [Example 7062] ({CH2CO}-[Phe(2,4-Cl2)][NMeA]NPHL[Hyp]WSW[NMeNle][NMeNle]RCG-NH2; thioether N-14) | 4.78 to 72.9 nM | 0.385 to 6.74 nM
CCCC[C@H]1C(=O)N(C)[C@@H](CCCC)C(=O)N[C@@H](CCCNC(=N)N)C(=O)N[C@H](C(=O)NCC(N)=O)CSCC(=O)N[C@@H](Cc2ccc(Cl)c(Cl)c2)C(=O)N(C)[C@@H](C)C(=O)N[C@@H](CC(N)=O)C(=O)N2CCC[C@H]2C(=O)N[C@@H](CN)C(=O)N[C@@H](CC(C)C)C(=O)N2C[C@H](O)C[C@H]2C(=O)N[C@@H](Cc2c[nH]c3ccccc23)C(=O)N[C@@H](CO)C(=O)N[C@@H](Cc2c[nH]c3ccccc23)C(=O)N1C [Example 7063] ({CH2CO}-[Phe(3,4-Cl2)][NMeA]NP[Dap]L[Hyp]WSW[NMeNle][NMeNle]RCG-NH2; thioether N-14) | 4.78 to 72.9 nM | 0.385 to 6.74 nM
CCCC[C@@H]1NC(=O)[C@H](Cc2cnc[nH]2)NC(=O)[C@@H]2CCCN2C(=O)[C@H](CC(N)=O)NC(=O)[C@H](C)N(C)C(=O)[C@H](Cc2ccc(O)cc2)NC(=O)CSCC(C(=O)NCC(N)=O)NC(=O)[C@H](CCCNC(=N)N)NC(=O)[C@H](CCCC)N(C)C(=O)[C@H](CCCC)N(C)C(=O)[C@H](Cc2csc3ccccc23)NC(=O)[C@H](CO)NC(=O)[C@H](Cc2c[nH]c3ccccc23)NC(=O)[C@H]2CCCN2C1=O (stereo partly drawn) [Example 9002] ({CH2CO}-Y[NMeA]NPH[Nle][dP]WS[Bta][NMeNle][NMeNle]R[ξC]G-NH2; thioether N-14) | 4.78 to 72.9 nM | 6.76 to 30.3 nM
CCCC[C@H]1C(=O)N[C@@H](CCCNC(=N)N)C(=O)NC(C(=O)NCC(N)=O)CSCC(=O)N[C@@H](Cc2ccc(O)cc2)C(=O)N(C)[C@@H](C)C(=O)N[C@@H](CC(N)=O)C(=O)N2CCC[C@H]2C(=O)N[C@@H](Cc2cnc[nH]2)C(=O)N[C@@H](CC(C)C)C(=O)N2C[C@H](O)C[C@H]2C(=O)N[C@@H](Cc2c[nH]c3ccccc23)C(=O)N[C@@H](CO)C(=O)N[C@@H](Cc2c[nH]c3ccccc23)C(=O)N(C)[C@@H](CCOC)C(=O)N1C (stereo partly drawn) [Example 9004] | 4.78 to 72.9 nM | 0.385 to 6.74 nM
CCCC[C@H]1C(=O)N(C)[C@@H](CCOC)C(=O)N[C@@H](CCCNC(=N)N)C(=O)N[C@H](C(=O)NCC(N)=O)CSCC(=O)N[C@@H](Cc2ccc(O)cc2)C(=O)N(C)[C@@H](C)C(=O)N[C@@H](CC(=O)O)C(=O)N2CCC[C@H]2C(=O)N[C@@H](Cc2cnc[nH]2)C(=O)N[C@@H](CC(C)C)C(=O)N2CCC[C@@H]2C(=O)N[C@@H](Cc2c[nH]c3ccccc23)C(=O)N[C@@H](CO)C(=O)N[C@@H](Cc2c[nH]c3ccccc23)C(=O)N1C [Example 9005] ({CH2CO}-Y[NMeA]DPHL[dP]WSW[NMeNle][NMehSer](Me)RCG-NH2; thioether N-14) | 0.158 to 4.71 nM | 0.385 to 6.74 nM
CCCC[C@H]1C(=O)N(C)[C@@H](CCOC)C(=O)N[C@@H](CCCNC(=N)N)C(=O)NC(C(=O)NCC(N)=O)CSCC(=O)N[C@@H](Cc2ccc(O)cc2)C(=O)N(C)[C@@H](C)C(=O)N[C@@H](CC(=O)O)C(=O)N2CCC[C@H]2C(=O)N[C@@H](Cc2cnc[nH]2)C(=O)N[C@@H](CC(C)C)C(=O)N2CCC[C@H]2C(=O)N[C@@H](Cc2c[nH]c3ccccc23)C(=O)N[C@@H](CO)C(=O)N[C@@H](Cc2csc3ccccc23)C(=O)N1C (stereo partly drawn) [Example 9008] ({CH2CO}-Y[NMeA]DPHLPWS[Bta][NMeNle][NMehSer](Me)R[ξC]G-NH2; thioether N-14) | 0.158 to 4.71 nM | 0.385 to 6.74 nM
CCCC[C@H]1C(=O)N[C@@H](CCCNC(=N)N)C(=O)NC(C(=O)NCC(N)=O)CSCC(=O)N[C@@H](Cc2ccc(O)cc2)C(=O)N(C)[C@@H](C)C(=O)N[C@@H](CC(=O)O)C(=O)N2CCC[C@H]2C(=O)N[C@@H](Cc2cnc[nH]2)C(=O)N[C@@H](CC(C)C)C(=O)N2CCC[C@H]2C(=O)N[C@@H](Cc2c[nH]c3ccccc23)C(=O)N[C@@H](CO)C(=O)N[C@@H](Cc2csc3ccccc23)C(=O)N(C)[C@@H](CCOC)C(=O)N1C (stereo partly drawn) [Example 9009] ({CH2CO}-Y[NMeA]DPHLPWS[Bta][NMehSer](Me)[NMeNle]R[ξC]G-NH2; thioether N-14) | 4.78 to 72.9 nM | 6.76 to 30.3 nM

Now from value to molecule:

IC50 [1] | IC50 (Human PD-L1/PD-1) | Structure (SMILES)
4.78 to 72.9 nM | 0.385 to 6.74 nM | CCCC[C@H]1C(=O)N(C)[C@@H](CCCC)C(=O)N[C@@H](CCCNC(=N)N)C(=O)N[C@H](C(=O)NCC(N)=O)CSCC(=O)N[C@@H](Cc2ccc(N)cc2)C(=O)N(C)[C@@H](C)C(=O)N[C@@H](CC(N)=O)C(=O)N2CCC[C@H]2C(=O)N[C@@H](Cc2cnc[nH]2)C(=O)N[C@@H](CC(C)C)C(=O)N2C[C@H](O)C[C@H]2C(=O)N[C@@H](Cc2c[nH]c3ccccc23)C(=O)N[C@@H](CO)C(=O)N[C@@H](Cc2c[nH]c3ccccc23)C(=O)N1C [Example 7059] ({CH2CO}-[Phe(4-NH2)][NMeA]NPHL[Hyp]WSW[NMeNle][NMeNle]RCG-NH2; thioether N-14)
> 74.3 nM | > 30.5 nM | CCCC[C@H]1C(=O)N(C)[C@@H](CCCC)C(=O)N[C@@H](CCCNC(=N)N)C(=O)N[C@H](C(=O)NCC(N)=O)CSCC(=O)N[C@@H](Cc2ccc(N=C(N)N)cc2)C(=O)N(C)[C@@H](C)C(=O)N[C@@H](CC(N)=O)C(=O)N2CCC[C@H]2C(=O)N[C@@H](CN)C(=O)N[C@@H](CC(C)C)C(=O)N2C[C@H](O)C[C@H]2C(=O)N[C@@H](Cc2c[nH]c3ccccc23)C(=O)N[C@@H](CO)C(=O)N[C@@H](Cc2c[nH]c3ccccc23)C(=O)N1C [Example 7064] ({CH2CO}-[Phe(4-guanidino)][NMeA]NP[Dap]L[Hyp]WSW[NMeNle][NMeNle]RCG-NH2; thioether N-14)
0.158 to 4.71 nM | 6.76 to 30.3 nM | CCCC[C@H]1C(=O)N(C)[C@@H](CCCC)C(=O)N[C@@H](CCCNC(=N)N)C(=O)NC(C(=O)NCC(N)=O)CSCC(=O)N[C@@H](Cc2ccc(O)cc2)C(=O)N(C)[C@@H](C)C(=O)N[C@@H](CC(N)=O)C(=O)N2C[C@H](O)C[C@H]2C(=O)N[C@@H](Cc2cnc[nH]2)C(=O)N[C@@H](CC(C)C)C(=O)N2CCC[C@@H]2C(=O)N[C@@H](Cc2c[nH]c3ccccc23)C(=O)N[C@@H](CO)C(=O)N[C@@H](Cc2csc3ccccc23)C(=O)N1C (stereo partly drawn) [Example 9001] ({CH2CO}-Y[NMeA]N[Hyp]HL[dP]WS[Bta][NMeNle][NMeNle]R[ξC]G-NH2; thioether N-14)
0.158 to 4.71 nM | 0.385 to 6.74 nM | CCCC[C@H]1C(=O)N(C)[C@@H](CCOC)C(=O)N[C@@H](CCCNC(=N)N)C(=O)NC(C(=O)NCC(N)=O)CSCC(=O)N[C@@H](Cc2ccc(O)cc2)C(=O)N(C)[C@@H](C)C(=O)N[C@@H](CC(N)=O)C(=O)N2CCC[C@H]2C(=O)N[C@@H](Cc2cnc[nH]2)C(=O)N[C@@H](CC(C)C)C(=O)N2C[C@H](O)C[C@@H]2C(=O)N[C@@H](Cc2c[nH]c3ccccc23)C(=O)N[C@@H](CO)C(=O)N[C@@H](Cc2c[nH]c3ccccc23)C(=O)N1C (stereo partly drawn) [Example 9003]
0.158 to 4.71 nM | 0.385 to 6.74 nM | CCCC[C@H]1C(=O)N(C)[C@@H](CCOC)C(=O)N[C@@H](CCCNC(=N)N)C(=O)N[C@H](C(=O)NCC(N)=O)CSCC(=O)N[C@@H](Cc2ccc(O)cc2)C(=O)N(C)[C@@H](C)C(=O)N[C@@H](CC(N)=O)C(=O)N2CCC[C@H]2C(=O)N[C@@H](Cc2cnc[nH]2)C(=O)N[C@@H](CC(C)C)C(=O)N2C[C@H](O)C[C@@H]2C(=O)N[C@@H](Cc2c[nH]c3ccccc23)C(=O)N[C@@H](CO)C(=O)N[C@@H](Cc2csc3ccccc23)C(=O)N1C [Example 9006] ({CH2CO}-Y[NMeA]NPHL[d(cisHyp)]WS[Bta][NMeNle][NMehSer](Me)RCG-NH2; thioether N-14)
0.158 to 4.71 nM | 0.385 to 6.74 nM | CCCC[C@H]1C(=O)N[C@@H](CCCNC(=N)N)C(=O)N[C@H](C(=O)NCC(N)=O)CSCC(=O)N[C@@H](Cc2ccc(O)cc2)C(=O)N(C)[C@@H](C)C(=O)N[C@@H](CC(N)=O)C(=O)N2CCC[C@H]2C(=O)N[C@@H](Cc2cnc[nH]2)C(=O)N[C@@H](CC(C)C)C(=O)N2C[C@H](O)C[C@@H]2C(=O)N[C@@H](Cc2c[nH]c3ccccc23)C(=O)N[C@@H](CO)C(=O)N[C@@H](Cc2csc3ccccc23)C(=O)N(C)[C@@H](CCOC)C(=O)N1C [Example 9007] ({CH2CO}-Y[NMeA]NPHL[d(cisHyp)]WS[Bta][NMehSer](Me)[NMeNle]RCG-NH2; thioether N-14)

— US9850283B2, “Macrocyclic inhibitors of the PD-1/PD-L1 and CD80(B7-1)/PD-L1 protein/protein interactions” (BRISTOL-MYERS SQUIBB COMPANY, priority 2013, dated 2017)
